The values that follow come from patent publication US9511073B2, “Aromatic amides and uses thereof” (TAXIS Pharmaceuticals, Inc., priority 2011, dated 2016).

≈ marks a conversion by molar mass, not a printed value.

This test relates to Staphylococcus aureus (Isolate ID ATCC 29213). Kind of test: Bacterial assay: MIC by broth microdilution or agar dilution (CLSI), S. aureus ATCC 29213. Format: cell-based. The conditions noted are these: Staphylococcus aureus, ATCC29213, read-out: S. aureus MIC (μg/mL) Activity Range, S. aureus (ATCC29213). The procedure, abridged: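 Activity is binned (A ≤0.25 μg/mL; B >0.25–1.0; C >1.0–16; D >16 μg/mL) from MICs determined per CLSI by broth microdilution or agar dilution, on S. aureus ATCC 29213 plus an FtsZ-G196A mutant strain.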
A general note: Broth dilution looks for growth in wells or tubes with falling amounts of substance.
Regarding `NC(=O)c1c(F)ccc(OC(COC(=O)Nc2ccncc2)c2nc(-c3ccc(C(F)(F)F)cc3)c(Br)o2)c1F` (stereo not drawn) [Compound 176, 2-(5-bromo-4-(4-(trifluoromethyl)phenyl)oxazol-2-yl)-2-(3-carbamoyl-2,4-difluorophenoxy)ethyl pyridin-4-ylcarbamate], the MIC lay within 0.25 to 1 µg/mL (≈ 0.399 to 1.59 µM). Then `NC(=O)c1c(F)ccc(OC(COC(=O)Nc2nnn[nH]2)c2nc(-c3ccc(C(F)(F)F)cc3)c(Br)o2)c1F` (stereo not drawn) [Compound 177, 2-(5-bromo-4-(4-(trifluoromethyl)phenyl)oxazol-2-yl)-2-(3-carbamoyl-2,4-difluorophenoxy)ethyl 1H-tetrazol-5-ylcarbamate], with more than 16 µg/mL; and `CN1CCN(C(=O)OCC(Oc2ccc(F)c(C(N)=O)c2F)c2nc(-c3ccc(C(F)(F)F)cc3)c(Br)o2)CC1` (stereo not drawn) [Compound 178, 2-(5-bromo-4-(4-(trifluoromethyl)phenyl)oxazol-2-yl)-2-(3-carbamoyl-2,4-difluorophenoxy)ethyl 4-methylpiperazine-1-carboxylate], with 0.25 to 1 µg/mL (≈ 0.395 to 1.58 µM). As for `Cc1noc(CNC(=O)OCC(Oc2ccc(F)c(C(N)=O)c2F)c2nc(-c3ccc(C(F)(F)F)cc3)c(Br)o2)n1` (stereo not drawn) [Compound 179, 2-(5-bromo-4-(4-(trifluoromethyl)phenyl)oxazol-2-yl)-2-(3-carbamoyl-2,4-difluorophenoxy)ethyl ((3-methyl-1,2,4-oxadiazol-5-yl)methyl)carbamate], the MIC was less than 0.25 µg/mL. Under `CCOC(=O)C(Oc1ccc(F)c(C(N)=O)c1F)c1nc(C2CCOCC2)co1` (stereo not drawn) [Compound 180, ethyl 2-(3-carbamoyl-2,4-difluorophenoxy)-2-(4-(tetrahydro-2H-pyran-4-yl)oxazol-2-yl)acetate] stands more than 16 µg/mL; under `NC(=O)c1c(F)ccc(OC(CO)c2nc(C3CCOCC3)co2)c1F` (stereo not drawn) [Compound 182, 2,6-difluoro-3-(2-hydroxy-1-(4-(tetrahydro-2H-pyran-4-yl)oxazol-2-yl)ethoxy)benzamide], more than 16 µg/mL. For the compound `CN(Cc1cccnc1)C(=O)OCC(Oc1ccc(F)c(C(N)=O)c1F)c1nc(-c2ccc(C(F)(F)F)cc2)c(Br)o1` (stereo not drawn) [Compound 185, 2-(5-bromo-4-(4-(trifluoromethyl)phenyl)oxazol-2-yl)-2-(3-carbamoyl-2,4-difluorophenoxy)ethyl methyl(pyridin-3-ylmethyl)carbamate], the MIC lay in the range of 0.25 to 1 µg/mL (≈ 0.381 to 1.53 µM). Under `CN(Cc1ccncc1)C(=O)OCC(Oc1ccc(F)c(C(N)=O)c1F)c1nc(-c2ccc(C(F)(F)F)cc2)c(Br)o1` (stereo not drawn) [Compound 186, 2-(5-bromo-4-(4-(trifluoromethyl)phenyl)oxazol-2-yl)-2-(3-carbamoyl-2,4-difluorophenoxy)ethyl methyl(pyridin-4-ylmethyl)carbamate] stands 0.25 to 1 µg/mL (≈ 0.381 to 1.53 µM); under `NC(=O)c1c(F)ccc(OC(CO)c2nc(C3CCOCC3)c(Br)o2)c1F` (stereo not drawn) [Compound 187, 3-(1-(5-bromo-4-(tetrahydro-2H-pyran-4-yl)oxazol-2-yl)-2-hydroxyethoxy)-2,6-difluorobenzamide], more than 16 µg/mL; under `Cc1noc(C(Oc2ccc(F)c(C(N)=O)c2F)c2nc(-c3ccc(C(F)(F)F)cc3)co2)n1` (stereo not drawn) [Compound 188, 2,6-difluoro-3-((3-methyl-1,2,4-oxadiazol-5-yl)(4-(4-(trifluoromethyl)phenyl)oxazol-2-yl)methoxy)benzamide], more than 16 µg/mL. On to `NC(=O)c1c(F)ccc(OC(c2nc(-c3ccc(C(F)(F)F)cc3)c(Br)o2)C(O)CO)c1F` (stereo not drawn) [Compound 189, 3-(1-(5-bromo-4-(4-(trifluoromethyl)phenyl)oxazol-2-yl)-2,3-dihydroxypropoxy)-2,6-difluorobenzamide], for which the MIC was in the range of 1 to 16 µg/mL (≈ 1.86 to 29.8 µM).

`Cc1nccn1CCNC(=O)OCC(Oc1ccc(F)c(C(N)=O)c1F)c1nc(-c2ccc(C(F)(F)F)cc2)c(Br)o1` (stereo not drawn) [Compound 190, 2-(5-bromo-4-(4-(trifluoromethyl)phenyl)oxazol-2-yl)-2-(3-carbamoyl-2,4-difluorophenoxy)ethyl (2-(2-methyl-1H-imidazol-1-yl)ethyl)carbamate]: the MIC was in the range of 1 to 16 µg/mL (≈ 1.52 to 24.3 µM). Then `CN(Cc1ccccn1)C(=O)OCC(Oc1ccc(F)c(C(N)=O)c1F)c1nc(-c2ccc(C(F)(F)F)cc2)c(Br)o1` (stereo not drawn) [Compound 191, 2-(5-bromo-4-(4-(trifluoromethyl)phenyl)oxazol-2-yl)-2-(3-carbamoyl-2,4-difluorophenoxy)ethyl methyl(pyridin-2-ylmethyl)carbamate], with 1 to 16 µg/mL (≈ 1.53 to 24.4 µM); and `CN(Cc1cnccn1)C(=O)OCC(Oc1ccc(F)c(C(N)=O)c1F)c1nc(-c2ccc(C(F)(F)F)cc2)c(Br)o1` (stereo not drawn) [Compound 192, 2-(5-bromo-4-(4-(trifluoromethyl)phenyl)oxazol-2-yl)-2-(3-carbamoyl-2,4-difluorophenoxy)ethyl methyl(pyrazin-2-ylmethyl)carbamate], with 0.25 to 1 µg/mL (≈ 0.381 to 1.52 µM). As to `Cn1ccc(CNC(=O)OCC(Oc2ccc(F)c(C(N)=O)c2F)c2nc(-c3ccc(C(F)(F)F)cc3)c(Br)o2)n1` (stereo not drawn) [Compound 193, 2-(5-bromo-4-(4-(trifluoromethyl)phenyl)oxazol-2-yl)-2-(3-carbamoyl-2,4-difluorophenoxy)ethyl ((1-methyl-1H-pyrazol-3-yl)methyl)carbamate], the MIC is less than 0.25 µg/mL.

`Cn1nccc1CNC(=O)OCC(Oc1ccc(F)c(C(N)=O)c1F)c1nc(-c2ccc(C(F)(F)F)cc2)c(Br)o1` (stereo not drawn) [Compound 194, 2-(5-bromo-4-(4-(trifluoromethyl)phenyl)oxazol-2-yl)-2-(3-carbamoyl-2,4-difluorophenoxy)ethyl ((1-methyl-1H-pyrazol-5-yl)methyl)carbamate]: the MIC was less than 0.25 µg/mL.

Regarding `Cn1cncc1CNC(=O)OCC(Oc1ccc(F)c(C(N)=O)c1F)c1nc(-c2ccc(C(F)(F)F)cc2)c(Br)o1` (stereo not drawn) [Compound 195, 2-(5-bromo-4-(4-(trifluoromethyl)phenyl)oxazol-2-yl)-2-(3-carbamoyl-2,4-difluorophenoxy)ethyl ((1-methyl-1H-imidazol-5-yl)methyl)carbamate], the MIC fell in the range of 1 to 16 µg/mL (≈ 1.55 to 24.8 µM). Regarding `COc1ncccc1CNC(=O)OCC(Oc1ccc(F)c(C(N)=O)c1F)c1nc(-c2ccc(C(F)(F)F)cc2)c(Br)o1` (stereo not drawn) [Compound 196, 2-(5-bromo-4-(4-(trifluoromethyl)phenyl)oxazol-2-yl)-2-(3-carbamoyl-2,4-difluorophenoxy)ethyl ((2-methoxypyridin-3-yl)methyl)carbamate], the MIC was less than 0.25 µg/mL. Then `CN(Cc1ccncn1)C(=O)OCC(Oc1ccc(F)c(C(N)=O)c1F)c1nc(-c2ccc(C(F)(F)F)cc2)c(Br)o1` (stereo not drawn) [Compound 197, 2-(5-bromo-4-(4-(trifluoromethyl)phenyl)oxazol-2-yl)-2-(3-carbamoyl-2,4-difluorophenoxy)ethyl methyl(pyrimidin-4-ylmethyl)carbamate], with 0.25 to 1 µg/mL (≈ 0.381 to 1.52 µM); and `Cn1cc(CNC(=O)OCC(Oc2ccc(F)c(C(N)=O)c2F)c2nc(-c3ccc(C(F)(F)F)cc3)c(Br)o2)cn1` (stereo not drawn) [Compound 198, 2-(5-bromo-4-(4-(trifluoromethyl)phenyl)oxazol-2-yl)-2-(3-carbamoyl-2,4-difluorophenoxy)ethyl ((1-methyl-1H-pyrazol-4-yl)methyl)carbamate], with 0.25 to 1 µg/mL (≈ 0.388 to 1.55 µM); and `Cc1cccc(CNC(=O)OCC(Oc2ccc(F)c(C(N)=O)c2F)c2nc(-c3ccc(C(F)(F)F)cc3)c(Br)o2)n1` (stereo not drawn) [Compound 199, 2-(5-bromo-4-(4-(trifluoromethyl)phenyl)oxazol-2-yl)-2-(3-carbamoyl-2,4-difluorophenoxy)ethyl ((6-methylpyridin-2-yl)methyl)carbamate], with 0.25 to 1 µg/mL (≈ 0.381 to 1.53 µM).

Regarding `Cc1cc(CNC(=O)OCC(Oc2ccc(F)c(C(N)=O)c2F)c2nc(-c3ccc(C(F)(F)F)cc3)c(Br)o2)ccn1` (stereo not drawn) [Compound 200, 2-(5-bromo-4-(4-(trifluoromethyl)phenyl)oxazol-2-yl)-2-(3-carbamoyl-2,4-difluorophenoxy)ethyl ((2-methylpyridin-4-yl)methyl)carbamate], the MIC was in the range of 0.25 to 1 µg/mL (≈ 0.381 to 1.53 µM).

Regarding `Cn1ccnc1CNC(=O)OCC(Oc1ccc(F)c(C(N)=O)c1F)c1nc(-c2ccc(C(F)(F)F)cc2)c(Br)o1` (stereo not drawn) [Compound 201, 2-(5-bromo-4-(4-(trifluoromethyl)phenyl)oxazol-2-yl)-2-(3-carbamoyl-2,4-difluorophenoxy)ethyl ((1-methyl-1H-imidazol-2-yl)methyl)carbamate], the MIC lay within 0.25 to 1 µg/mL (≈ 0.388 to 1.55 µM). As to `Cn1cccc1CNC(=O)OCC(Oc1ccc(F)c(C(N)=O)c1F)c1nc(-c2ccc(C(F)(F)F)cc2)c(Br)o1` (stereo not drawn) [Compound 202, 2-(5-bromo-4-(4-(trifluoromethyl)phenyl)oxazol-2-yl)-2-(3-carbamoyl-2,4-difluorophenoxy)ethyl ((1-methyl-1H-pyrrol-2-yl)methyl)carbamate], the MIC is 0.25 to 1 µg/mL (≈ 0.389 to 1.55 µM). Under `Cn1cnc(CNC(=O)OCC(Oc2ccc(F)c(C(N)=O)c2F)c2nc(-c3ccc(C(F)(F)F)cc3)c(Br)o2)c1` (stereo not drawn) [Compound 203, 2-(5-bromo-4-(4-(trifluoromethyl)phenyl)oxazol-2-yl)-2-(3-carbamoyl-2,4-difluorophenoxy)ethyl ((1-methyl-1H-imidazol-4-yl)methyl)carbamate] stands 0.25 to 1 µg/mL (≈ 0.388 to 1.55 µM); under `Cc1nn(C)cc1CNC(=O)OCC(Oc1ccc(F)c(C(N)=O)c1F)c1nc(-c2ccc(C(F)(F)F)cc2)c(Br)o1` (stereo not drawn) [Compound 204, 2-(5-bromo-4-(4-(trifluoromethyl)phenyl)oxazol-2-yl)-2-(3-carbamoyl-2,4-difluorophenoxy)ethyl ((1,3-dimethyl-1H-pyrazol-4-yl)methyl)carbamate], 0.25 to 1 µg/mL (≈ 0.38 to 1.52 µM); under `Cc1c(CNC(=O)OCC(Oc2ccc(F)c(C(N)=O)c2F)c2nc(-c3ccc(C(F)(F)F)cc3)c(Br)o2)cnn1C` (stereo not drawn) [Compound 205, 2-(5-bromo-4-(4-(trifluoromethyl)phenyl)oxazol-2-yl)-2-(3-carbamoyl-2,4-difluorophenoxy)ethyl ((1,5-dimethyl-1H-pyrazol-4-yl)methyl)carbamate], 0.25 to 1 µg/mL (≈ 0.38 to 1.52 µM).
